According to PMC7251097, “Aspartate/asparagine-β-hydroxylase: a high-throughput mass spectrometric assay for discovery of small molecule inhibitors” (Scientific Reports, 2020):
Structures can show the parent of a compound that is named as a salt. Where two headings read alike, the source gives them in different places.

Molecular target: T1, His6-AspH315–758 (human aspartate/asparagine-β-hydroxylase, AspH) (Homo sapiens, UniProt Q12797)
T1 construct: N-Terminally His6-tagged human AspH315–758 (His6-AspH315–758) was produced in E. coli BL21 (DE3) cells; made in house; host or cells: E. coli BL21 (DE3), pET-28a(+) vector
T1 sequence (Q12797 315-758): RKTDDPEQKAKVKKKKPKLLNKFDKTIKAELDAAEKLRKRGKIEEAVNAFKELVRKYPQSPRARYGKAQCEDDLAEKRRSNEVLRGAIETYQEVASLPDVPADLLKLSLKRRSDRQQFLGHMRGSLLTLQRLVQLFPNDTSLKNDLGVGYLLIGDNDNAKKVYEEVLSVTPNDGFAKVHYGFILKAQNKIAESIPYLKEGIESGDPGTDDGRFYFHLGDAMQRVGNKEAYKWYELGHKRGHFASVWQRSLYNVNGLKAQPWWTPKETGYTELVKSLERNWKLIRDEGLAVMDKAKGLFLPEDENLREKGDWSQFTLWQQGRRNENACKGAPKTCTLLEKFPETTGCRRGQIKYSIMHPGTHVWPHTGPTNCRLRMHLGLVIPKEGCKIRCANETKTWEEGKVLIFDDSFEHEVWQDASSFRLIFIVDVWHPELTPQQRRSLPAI
Experiment: SPE-MS AspH inhibition assay (LOPAC screen at fixed 20 μM and IC50 dose-response), hydroxylation of cyclic peptide hFX-CP101–119
Assay type: biochemical
Conditions: for Plate 5 (% inhibition) / Plate 5 (% conversion): plate 5 (Pfitzer), test compounds at fixed 20 μM; for Plate 5 (% conversion): mean conversion DMSO 32.88

[1] = LOPAC compound at fixed 20 uM, plate 1, normalised to DMSO and 2,4-PDCA controls
[2] = LOPAC compound at fixed 20 uM, substrate conversion, plate 1
[3] = 50 nM His6-AspH315–758, 1.0 μM hFX-CP101–119, 3 μM 2OG, 2 μM Fe(II), 50 mM HEPES pH 7.5, 20 °C, mean ± SD, n = 2 (2,4-PDCA n = 10), read-out: IC50
[4] = LOPAC compound at 20uM, plate 2, conversion of substrate peptide
[5] = LOPAC compound at 20uM, plate 2, normalised to DMSO and 2,4-PDCA controls, read-out: Plate 2 (% inhibition)
[6] = LOPAC compound at 20uM, plate 3, conversion of substrate peptide
[7] = AspH activity, fixed compound concentration 20 μM, initial LOPAC screen, 0.5%v/v DMSO, read-out: Inhibition at 20 µM [%]
[8] = LOPAC Plate 4, compound at 20 uM, substrate conversion
[9] = LOPAC compound at 20uM, plate 2, normalised to DMSO and 2,4-PDCA controls

With `CCCNC(=O)NS(=O)(=O)c1ccc(Cl)cc1` [Chlorpropamide] the “Plate 1 (% inhibition)” value [1] was -3.59% and the “Plate 1 (% conversion)” value [2] was 37.08%.

`CN(C)CC/C=C1/c2ccccc2Sc2ccc(Cl)cc21` [Chlorprothixene hydrochloride] was tested, and the “Plate 1 (% inhibition)” value [1] was -27.95% and the “Plate 1 (% conversion)” value [2] was 45.26%.

For `C[N+](C)(C)CCO.[Br-]` [Choline bromide], the “Plate 1 (% conversion)” value was 37.78% and the “Plate 1 (% inhibition)” value was -5.68%.

For `O=C(O)CCC(=O)O.c1ccc(C2(c3ccccc3)CC2C2=NCCN2)cc1` (stereo not drawn) [Cibenzoline succinate], the “Plate 3 (% conversion)” value was 24.00%.

For `Cc1cc(C2CCCCC2)n(O)c(=O)c1` [Ciclopirox olamine, reference compound], the IC50 [3] was 4.39 ± 0.71 µM.

For `CN(C(=O)CCCOc1ccc2[nH]c(=O)ccc2c1)C1CCCCC1` [Cilostamide], the “Plate 1 (% inhibition)” value [1] was -8.28% and the “Plate 1 (% conversion)” value [2] was 38.65%.

In the case of `O=C1CCc2cc(OCCCCc3nnnn3C3CCCCC3)ccc2N1` [Cilostazol], the “Plate 1 (% inhibition)” value [1] is reported as -4.97% and the “Plate 1 (% conversion)” value [2] is reported as 37.54%.

In the case of `CN/C(=N/CCSCc1nc[nH]c1C)NC#N` [Cimetidine], the “Plate 1 (% inhibition)” value [1] is reported as -0.45% and the “Plate 1 (% conversion)” value [2] is reported as 36.02%.

`CCn1nc(C(=O)O)c(=O)c2cc3c(cc21)OCO3` [Cinoxacin] was tested, and the “Plate 1 (% inhibition)” value [1] was -6.95% and the “Plate 1 (% conversion)” value [2] was 38.21%.

With `CC(C)(Oc1ccc(C2CC2(Cl)Cl)cc1)C(=O)O` (stereo not drawn) [Ciprofibrate] the “Plate 1 (% inhibition)” value [1] was -0.63% and the “Plate 1 (% conversion)” value [2] was 36.08%.

For `c1ccc(C2CC2)c(OCC2=NCCN2)c1` [Cirazoline hydrochloride], the “Plate 2 (% conversion)” value [4] was 38.17% and the inhibition at 20 µM [5] was -6.62%.

In the case of `N.N.[Cl][Pt][Cl]` [Cisplatin], the “Plate 3 (% conversion)” value [6] is reported as 31.15%.

In the case of `CN(C)CCCC1(c2ccc(F)cc2)OCc2cc(C#N)ccc21` (stereo not drawn) [Citalopram hydrobromide], the “Plate 1 (% inhibition)” value [1] is reported as -13.21% and the “Plate 1 (% conversion)” value [2] is reported as 40.31%.

In the case of `Cl.Clc1ccc(Cn2c(CN3CCCC3)nc3ccccc32)cc1` [Clemizole hydrochloride], the “Plate 1 (% inhibition)” value [1] is reported as -13.99% and the “Plate 1 (% conversion)” value [2] is reported as 40.57%.

With `O=P(O)(O)C(Cl)(Cl)P(=O)(O)O` [Clodronic acid, reference compound] the inhibition at 20 µM [7] was 100%, the “Plate 2 (% conversion)” value [4] was 2.30% and the inhibition at 20 µM [5] was 101%.

With `CCOC(=O)C(C)(C)Oc1ccc(Cl)cc1` [Clofibrate] the “Plate 1 (% inhibition)” value [1] was -11.71% and the “Plate 1 (% conversion)” value [2] was 39.80%.

`CN(C)CCCN1c2ccccc2CCc2ccc(Cl)cc21` [Clomipramine hydrochloride] was tested, and the “Plate 1 (% inhibition)” value [1] was -22.34% and the “Plate 1 (% conversion)” value [2] was 43.38%.

For `Clc1cccc(Cl)c1N=C1NCCN1` [Clonidine hydrochloride], the “Plate 1 (% inhibition)” value [1] was -13.86% and the “Plate 1 (% conversion)” value [2] was 40.53%.

In the case of `C#CCN(C)CCCOc1ccc(Cl)cc1Cl` [Clorgyline hydrochloride], the “Plate 3 (% conversion)” value [6] is reported as 42.76%.

For `Clc1ccccc1C(c1ccccc1)(c1ccccc1)n1ccnc1` [Clotrimazole], the “Plate 1 (% inhibition)” value [1] was -28.43% and the “Plate 1 (% conversion)” value [2] was 45.42%.

`CN1CCN(C2=Nc3cc(Cl)ccc3Nc3ccccc32)CC1` [Clozapine] was tested, and the “Plate 1 (% conversion)” value was 39.79% and the “Plate 1 (% inhibition)” value [1] was -11.65%.

With `COc1cc2c(c(OC)c1OC)-c1ccc(OC)c(=O)cc1[C@@H](NC(C)=O)CC2` [Colchicine] the “Plate 1 (% conversion)” value was 37.55% and the “Plate 1 (% inhibition)” value was -5.00%.

`C[C@]12CCC(=O)C=C1CC[C@@H]1[C@@H]2CC[C@@]2(C)[C@H]1CC[C@]2(O)C(=O)CO` [Cortexolone] was tested, and the “% conversion” value [8] was 39.11%.

For `C[C@]12C[C@H](O)[C@H]3[C@@H](CCC4=CC(=O)CC[C@@]43C)[C@@H]1CC[C@@H]2C(=O)CO` [Corticosterone], the “Plate 1 (% inhibition)” value [1] was -6.36% and the “Plate 1 (% conversion)” value [2] was 38.01%.

With `CC(=O)OCC(=O)[C@@]1(O)CC[C@H]2[C@@H]3CCC4=CC(=O)CC[C@]4(C)[C@H]3C(=O)C[C@@]21C` [Cortisone 21-acetate] the “Plate 1 (% inhibition)” value [1] was 4.10% and the “Plate 1 (% conversion)” value [2] was 34.50%.

With `C[C@]12CCC(=O)C=C1CC[C@@H]1[C@@H]2C(=O)C[C@@]2(C)[C@H]1CC[C@]2(O)C(=O)CO` [Cortisone] the “Plate 1 (% inhibition)” value [1] was -8.46% and the “Plate 1 (% conversion)” value [2] was 38.71%.

`C[C@@H](Oc1cc(-c2cnn(C3CCNCC3)c2)cnc1N)c1c(Cl)ccc(F)c1Cl` [Crizotinib] was tested, and the “Plate 5 (% inhibition)” value was -31.92% and the “Plate 5 (% conversion)” value was 47.18%.

`CN(C)CCC=C1c2ccccc2C=Cc2ccccc21` [Cyclobenzaprine hydrochloride] was tested, and the “Plate 1 (% inhibition)” value [1] was -15.86% and the “Plate 1 (% conversion)” value [2] was 41.20%.

`O=P1(N(CCCl)CCCl)NCCCO1` (stereo not drawn) [Cyclophosphamide monohydrate] was tested, and the “Plate 1 (% conversion)” value was 38.48% and the “Plate 1 (% inhibition)” value was -7.77%.

`CN1CCC(=C2c3ccccc3C=Cc3ccccc32)CC1` [Cyproheptadine hydrochloride] was tested, and the “Plate 1 (% inhibition)” value [1] was -17.18% and the “Plate 1 (% conversion)” value [2] was 41.64%.

For `CC(=O)O[C@]1(C(C)=O)CC[C@H]2[C@@H]3C=C(Cl)C4=CC(=O)[C@@H]5C[C@@H]5[C@]4(C)[C@H]3CC[C@@]21C` [Cyproterone acetate], the “Plate 1 (% inhibition)” value [1] was -9.70% and the “Plate 1 (% conversion)” value [2] was 39.13%.

For `NCCSSCCN` [Cystamine dihydrochloride], the “Plate 1 (% inhibition)” value [1] was -7.76% and the “Plate 1 (% conversion)” value [2] was 38.48%.

For `Cl.NCCS` [Cysteamine hydrochloride], the “Plate 3 (% conversion)” value [6] was 40.01%.

With `S=C([S-])OC1CC2CC1C1CCCC21.[K+]` [D-609 potassium] the “% conversion” value was 29.00%.

In the case of `N[C@@H]1CON=C1O` [D-Cycloserine], the “Plate 1 (% inhibition)” value [1] is reported as -7.97% and the “Plate 1 (% conversion)” value [2] is reported as 38.55%.

For `N[C@H](CO)C(=O)O` [D-Serine], the “% conversion” value [8] was 29.64%.

`OC[C@H]1OC(n2cnc3ccccc32)[C@H](O)[C@@H]1O` (stereo partly drawn) [D-ribofuranosylbenzimidazole] was tested, and the “Plate 2 (% conversion)” value [4] was 37.89% and the “Plate 2 (% inhibition)” value [9] was -5.77%.

For `O=C1NC(=O)c2cc(Nc3ccccc3)c(Nc3ccccc3)cc21` [DAPH], the “Plate 1 (% inhibition)” value [1] was -7.17% and the “Plate 1 (% conversion)” value [2] was 38.28%.

`Clc1ccc(N2C[C@H]3CC[C@@H](C2)N3)nn1` [DBO-83] was tested, and the “Plate 2 (% conversion)” value [4] was 32.84% and the “Plate 2 (% inhibition)” value [9] was 9.30%.

`CCn1c(=O)[nH]c2cc(Cl)c(Cl)cc21` [DCEBIO] was tested, and the “Plate 2 (% conversion)” value [4] was 39.27% and the “Plate 2 (% inhibition)” value [9] was -9.89%.

For `Fc1cccc(/C=N/N=C/c2cccc(F)c2)c1` [DFB], the “Plate 3 (% conversion)” value [6] was 35.73%.

For `c1ccc(-c2cnn3cc(-c4ccc(OCCN5CCOCC5)cc4)cnc23)cc1` [DMH4], the “Plate 1 (% inhibition)” value [1] was -35.30% and the “Plate 1 (% conversion)” value [2] was 47.73%.

With `CC(C)[C@@H]1CC[C@@H](C)C[C@@H]1P(=O)(c1ccccc1)c1ccccc1` [DPO-1] the “Plate 2 (% conversion)” value [4] was 40.63% and the “Plate 2 (% inhibition)” value [9] was -13.96%.

For `CN(C)NC(=O)CCC(=O)O` [Daminozide, daminozide, reference compound], the “IC50 [μM]” value (pH 7.5) was “inactive”.

`C#C[C@]1(O)CC[C@H]2[C@@H]3CCC4=Cc5oncc5C[C@]4(C)[C@H]3CC[C@@]21C` [Danazol] was tested, and the “Plate 2 (% conversion)” value [4] was 39.67% and the inhibition at 20 µM [5] was -11.1%.

In the case of `O=c1ccc2ccc(O)c(O)c2o1` [Daphnetin, reference compound], the inhibition at 20 µM [7] is reported as 98.5%.

In the case of `C[N+](C)(C)CCCCCCCCCC[N+](C)(C)C.[Br-].[Br-]` [Decamethonium dibromide], the “Plate 2 (% conversion)” value is reported as 41.52% and the “Plate 2 (% inhibition)” value (20 µM) is reported as -16.63%.

For `O=C(O)c1ccc(-n2nc(-c3ccccc3O)nc2-c2ccccc2O)cc1` [Deferasirox, reference compound], the IC50 [3] was 2.08 ± 0.81 µM.

With `Cc1c(O)c(=O)ccn1C` [Deferiprone, reference compound] the IC50 [3] was 4.89 ± 0.37 µM.

Work on `CC(=O)N(O)CCCCCNC(=O)CCC(=O)N(O)CCCCCNC(=O)CCC(=O)N(O)CCCCCN` [Deferoxamine mesylate, reference compound] yielded an IC50 [3] of 3.16 ± 0.93 µM.

`CC(C)Nc1cccnc1N1CCN(C(=O)c2cc3cc(NS(C)(=O)=O)ccc3[nH]2)CC1` [Delavirdine] was tested, and the “Plate 5 (% inhibition)” value was 28.61% and the “Plate 5 (% conversion)” value was 26.58%.

`O=C(O)CNC(=O)c1c(O)c2ccccc2n(OCC2CC2)c1=O` [Desidustat, desidustat, reference compound] gave an IC50 (IC50 [μM]) of 16.3 ± 0.44 µM.

With `CNCCCN1c2ccccc2CCc2ccccc21` [Desipramine hydrochloride] the “Plate 2 (% conversion)” value [4] was 40.94% and the inhibition at 20 µM [5] was -14.9%.

For `O=c1c2ccccc2[nH]c(=S)n1CCN1CCC(=C(c2ccc(F)cc2)c2ccc(F)cc2)CC1` [Diacylglycerol Kinase Inhibitor II], the “Plate 2 (% conversion)” value [4] was 21.33% and the inhibition at 20 µM [5] was 43.7%.

With `O=C(O)Cc1ccccc1Nc1c(Cl)cccc1Cl` [Diclofenac sodium] the “Plate 2 (% conversion)” value [4] was 32.33% and the inhibition at 20 µM [5] was 10.8%.
